Experimental data as given in paper PMC12445440 (Journal of Medical Virology, 2025).

Legend:
ZIKV^Br [1] = assay: Virus yield reduction assay, ZIKV^Br on Huh-7 cells; assay type: cell-based, Zika virus
ZIKV^Br [2] = assay: Virus yield assay, ZIKV^Br on VeroE6 cells; assay type: cell-based; settings: Zika virus, Vero C1008, 95% CI in brackets
ZIKV^Br [3] = assay: Virus yield assay, ZIKV^Br on HMC3 cells; assay type: cell-based; settings: Zika virus
[4] = Cytotoxicity by WST-8, VeroE6 cells; assay type: cell-based; settings: simian, 95% CI in brackets
Protocol: (§1) Cytotoxic/cytostatic effects were evaluated in uninfected cells by WST‐8 (Orangu, Cell Guidance Systems): 1 × 10^4 cells/well in a 96‐well plate were incubated in the presence of threefold serial dilutions of compounds, from 0.30 to 218 μM, for 48 h. Medium was replaced with 50 μL of 10% WST‐8, in DMEM, 2% FBS. Following a 1‐h incubation at 37°C, optical density (OD) in wells was measured at 450 nm using Varioskan LUX (ThermoFisher Scientific). CC50 was calculated using the formula: %viability=100×(ODcompound/ODuntreated control) where ODcompound and ODuntreated are the OD of the cells treated with compound or DMSO, respectively.

[5] = Cytotoxicity by WST-8, HMC3 cells; assay type: cell-based; settings: human, 95% CI in brackets
Protocol: as §1

[6] = Cytotoxicity by WST-8, C6/36 cells; assay type: cell-based; settings: Aedes albopictus, 95% CI in brackets
Protocol: as §1

[7] = Cytotoxicity by WST-8, A549 cells; assay type: cell-based; settings: human, 95% CI in brackets
Protocol: as §1

ZIKV^Ug = assay: microbe, parasite or virus in culture; assay type: cell-based; settings: Zika virus; ZIKV^Ug (Huh-7); 95% CI in brackets
USUV = assay: microbe, parasite or virus in culture; assay type: cell-based; settings: Usutu virus; USUV (Huh-7); 95% CI in brackets
WNV = assay: microbe, parasite or virus in culture; assay type: cell-based; settings: West Nile virus; WNV (Huh-7); 95% CI in brackets
SARS-CoV-2^Mi = assay: microbe, parasite or virus in culture; assay type: cell-based; settings: Severe acute respiratory syndrome coronavirus 2; SARS-CoV-2^Mi (Vero TMPRSS); 95% CI in brackets
CVB5 = assay: Plaque reduction assay, CVB5 on A549 cells; assay type: cell-based, Coxsackievirus B5; settings: Enterovirus B, 95% CI in brackets
CHIKV = assay: Plaque reduction assay, CHIKV on Huh-7 cells; assay type: cell-based; settings: Chikungunya virus, CHIKV (Huh-7), 95% CI in brackets
HSV2 = assay: Plaque reduction assay, HSV2 on A549 cells; assay type: cell-based, herpes simplex virus 2; settings: Human alphaherpesvirus 2
IAV = assay: microbe, parasite or virus in culture; assay type: cell-based; settings: Influenza A virus, MDCK
ZIKV NS5 = assay: ZIKV protein synthesis by western blot (NS5), Vero E6 cells; assay type: cell-based, Zika virus; settings: MOI 1, 1x, 5x, 10x EC50, 48 h
Protocol: Immunoblotting was performed as described.
Viral protein levels in cell lysates were analyzed by immunoblotting (Figure 3A,B), while virion release was assessed by quantifying ZIKV RNA in supernatants (Figure 3C).
Impact of treatment on ZIKV protein synthesis was evaluated on cell extracts analyzed by western blot using anti‐ ZIKV NS5, or anti‐GAPDH as a housekeeping control.

ZIKV^Br [8] = assay: Synergism between PS1097 and SOF, ZIKV^Br yield; assay type: cell-based, Zika virus
Protocol: Figure 4 (A) Experimental design of the Time Of Addition (TOA) assay for PS1097 and SOF. (B) ZIKV replication kinetics was determined on Huh‐7 cells infected at MOI 1for 2 h by western blot cell lysates prepared at the times shown. ZIKV NS5 and GAPDH were monitored with the antibodies in Supporting Information: Table S1. (C) Quantitative analysis of the results in B). (D) qRT‐PCR quantification of ZIKV RNA was carried out in ZIKV‐infected cells lysed at the times indicated on the x axis. (E) western blot of lysates of Huh‐7 cells harvested at 48 h p.i. where treatment with PS1097 or SOF was started as by A). (F) Quantitative analysis of the results in E). (G) ZIKV RNA was quantified in lysates of cells harvested at 48 h p.i. where treatment with PS1097 (red line) or SOF (green line) was started at the times p.i. indicated on the x axis. (H) Combined antiviral activity of PS1097 with SOF against ZIKV. Huh‐7 cells were infected with ZIKV then treated with PS1097 or SOF, alone or in combination, at the indicated concentrations. After 48 h p.i., supernatants were harvested and titrated for ZIKV yield. Two‐dimensional representation of dose–response interaction matrix was determined in synergyfinder.org. Color gradient indicates viral yield inhibition score (red‐highest score). (I) Three‐dimensional surface plot representing synergy score (Z axis) for each compound combination. […]

BVDV = settings: previously published data; Na = no detected antiviral activity; ref [18]-[22] of main text, [3] of supplement for PS1086, PS1100, PS1101; cited from earlier work
Vero76 = tested on: Vero76; parameters: method as in earlier work; settings: previously published data; ref [18]-[22] of main text, [3] of supplement for PS1086, PS1100, PS1101; cited from earlier work
in vitro = settings: simian
[9] = Cytotoxicity by WST-8, uninfected Huh-7 cells; settings: human
RTN4 = assay: Western blot of ER proteins in Huh-7 cells: RTN4; settings: 6 μM PS1097, 48 h
FAM134B = assay: Western blot of ER proteins in Huh-7 cells: FAM134B; settings: 6 μM PS1097, 48 h

`O=c1[nH]c2cc3cccnc3c(Cl)c2nc1-c1cccs1` [PS1097, 5‐chloro‐3‐(thiophen‐2‐yl) pyrido[2,3‐g] quinoxalin‐2(1H)‐one] showed an EC50 (ZIKV^Br [1]; ZIKV^Br on Huh-7 cells, viral yield reduction, 48 h, 95% confidence interval in brackets) of 0.69 µM, an EC50 (ZIKV^Br [1]; Zika virus, Huh-7, 48 h, ZIKV^Br on Huh-7 cells, viral yield reduction, 48 h, 95% confidence interval in brackets) of 0.6 µM and an EC50 (ZIKV^Br [1]; Zika virus, Huh-7, summary value of the discussion for Flaviviruses, read-out: EC50 against Flaviviruses) of roughly 0.7 µM. It also gave an EC50 (ZIKV^Br [2]) of 1.34 µM, an EC50 (ZIKV^Br [3]) greater than 100 µM and a CC50 at 48 h ([4]; VeroE6 cells, VeroE6 cells (TOSV row of Table 2)) of 575 µM. For the same compound, the CC50 at 48 h ([4]; VeroE6 cells (ZIKV^Br row of Table 2)) was 126 µM, the CC50 at 48 h [5] was 294 µM and the CC50 at 48 h [6] was 150 µM. It also gave a CC50 at 48 h ([7]; A549 cells (CVB5 and HSV2 rows of Table 2)) of 218 µM, a CC50 at 48 h ([7]; A549 cells (ZIKV^Br row of Table 2)) of 130 µM and an EC50 (ZIKV^Ug) of 1.29 µM. The EC50 (USUV) was 0.86 µM, the EC50 (WNV) was 1.15 µM and the EC50 (SARS-CoV-2^Mi) was 0.1 µM. The EC50 (CVB5) was 4.47 µM, the EC50 (CHIKV) was 4.4 µM and the EC50 (HSV2) was greater than 50 µM. For the same compound, the EC50 (IAV) was greater than 50 µM, the “ZIKV protein content (NS5, western blot)” value (ZIKV NS5) was “consistently reduced protein levels” and the “Interaction of PS1097 with SOF (synergy)” value (ZIKV^Br [8]; combined treatment PS1097 2.0–0.125 μM with SOF 5.0–0.39 μM, 48 h p.i., SynergyFinder) was “No synergistic effects”. The “Interaction of PS1097 with SOF at the highest concentrations” value (ZIKV^Br [8]; combined treatment, highest concentrations (PS1097 up to 2 μM, SOF up to 5 μM)) was “slight antagonistic effect”, the EC50 (BVDV) was 5 µM and the CC50 (Vero76) was greater than 100 µM. It also gave a CC50 (in vitro) of 86.2 µM, a CC50 (in vitro; CC50, Vero TMPRSS cells (SARS-CoV-2^Mi row of Table 2), 95% CI in brackets) of 436 µM and a CC50 at 48 h [9] of 229 µM. The “RTN4 protein content (western blot)” value (RTN4) was “virtually unchanged” and the “FAM134B protein content (western blot)” value (FAM134B) was “virtually unchanged”.
